According to US4025644A, “Tyrosine derivatives and use” (Daiichi Seiyaku Co., Ltd., priority 1974, dated 1977):
Peptide text beside a SMILES is read from it. * marks the point of attachment. Bz = O=C(c1ccccc1)*

Columns and labels:
[1] = Acute toxicity, oral, mice; conditions: in vivo, mouse p.o.
[2] = system: acetic acid ulcers in rats; assay: Anti-ulcerous effect on acetic acid-induced experimental gastric ulcers in rats (oral for 13 days from the day after ulceration), Table I; type: in vivo, Donryu-strain male rats; conditions: relative to glutamine
From the text: The anti-ulcerous effects of the object compounds of this invention have been confirmed in tests on ulcers in rats. The ulcers were produced according to the method of K. Takagi, S. Okabe and R. Saziki, by the effect of acetic acid on the digestive organs (Japanese Journal of Pharmacology vol. 19 pages 418-426 (1969), Yakkyoku vol. 25 pages 1453-1459 (1974) and Experientia vol. 27 pages 146-148 (1971). It is known that this experimental ulcer resembles human peptic ulcers with respect to the overall and histological findings and as to the recovery process. The experimental details confirming the anti-ulcerous effect are as follows.
Donryu-strain male rats having a body weight -- 230-270g (ten rats to a group) were not fed for 24 hours and then were anesthesized with ether. A laparotomy was performed. The stomach was exposed and 0.05 ml of 10% acetic acid was injected into the subserosal layer in the glandular part of the anterior wall to produce the experimental ulcers. The abdomen was then closed. Beginning on the day after the ulceration, the compounds of this invention were orally administered to the rats for 13 days. The rats were fed normally and sacrificed on the 15th day after the ulcer formation. The size of the ulcer (length and width) in the glandular part of the stomach was measured and the product of the length and width was used as the ulcer index (UI). The curative ratio (%) was calculated from the ulcer index of the rats which were medicated as compared with the index of the control group. [formula]
For the purpose of comparing the effects with those of known drugs, the therapeutic effects of the compounds of this invention, tyrosine itself and gefarnate relative to those of glutamine were calculated and are listed in Table I. Of these compounds, gefarnate (geranyl farnesylacetate,U.S. Pat. No. 3,154,570 (1964) and glutamine are known anti-ulcerous drugs.

[3] = system: chronic acetic acid ulcers in rats; assay: Anti-ulcerous effect on chronic acetic acid ulcers in rats (oral, 41st to 54th day after ulceration), Table II; type: in vivo; conditions: 14 days, relative to glutamine
Procedure: Donryu-strain male rats having a body weight -- 230-270g (ten rats to a group) were not fed for 24 hours and then were anesthesized with ether. A laparotomy was performed. The stomach was exposed and 0.05 ml of 10% acetic acid was injected into the subserosal layer in the glandular part of the anterior wall to produce the experimental ulcers. The abdomen was then closed. […] […] The size of the ulcer (length and width) in the glandular part of the stomach was measured and the product of the length and width was used as the ulcer index (UI). The curative ratio (%) was calculated from the ulcer index of the rats which were medicated as compared with the index of the control group. [formula] Acetic acid ulcers in rats are known to undergo partial healing and re-ulceration so that these ulcers resemble human chronic ulcers, both histologically and functionally. In order to examine the anti-ulcerous effects on chronic ulcers, the compounds of this invention were orally administered to rats for 14 days, from the 41st day to the 54th day after ulceration with acetic acid. On the 55th day, the rats were sacrificed and the size of the ulcer was measured. The procedure used in ulceration and in the determination of effects are the same as those described hereinbefore.

Structure (SMILES): COc1ccc(C(=O)N[C@H](CO)Cc2ccc(O)cc2)cc1
- LD50 [1]: > 4000 mg/kg
- Relative therapeutic effect ([2]; 200 mg/kg/day): 1.76

Structure (SMILES): COc1ccccc1C(=O)N[C@H](CO)Cc1ccc(O)cc1
- Relative therapeutic effect ([2]; 200 mg/kg/day): 1.29

Structure (SMILES): COc1cc(C(=O)N[C@H](CO)Cc2ccc(O)cc2)cc(OC)c1OC
- LD50 [1]: > 4000 mg/kg
- Relative therapeutic effect ([2]; 200 mg/kg/day): 1.43

Structure (SMILES): Nc1ccc(C(=O)N[C@H](CO)Cc2ccc(O)cc2)cc1
- Relative therapeutic effect ([2]; 200 mg/kg/day): 1.24

Structure (SMILES): Cc1ccc(COC(=O)N[C@H](CO)Cc2ccc(O)cc2)cc1
- LD50 [1]: > 4000 mg/kg
- Relative therapeutic effect ([2]; 200 mg/kg/day): 1.81

Structure (SMILES): O=C(N[C@H](CO)Cc1ccc(O)cc1)OCc1ccc(F)cc1
- Relative therapeutic effect ([2]; 200 mg/kg/day): 1.14

Structure (SMILES): O=C(N[C@H](CO)Cc1ccc(O)cc1)OCc1ccc(Cl)cc1
- Relative therapeutic effect ([2]; 200 mg/kg/day): 0.81

Structure (SMILES): O=C(N[C@H](CO)Cc1ccc(O)cc1)OCC1CCCCC1
- Relative therapeutic effect ([2]; 200 mg/kg/day): 1.60

Structure (SMILES): COc1ccc(C(=O)N[C@@H](Cc2ccccc2)C(=O)N[C@@H](Cc2ccc(O)cc2)C(=O)O)cc1 [Compound (II) R3 =CH3 O, N-(4-methoxybenzoyl)-phenylalanyltyrosine]
- Relative therapeutic effect ([3]; 50 mg/kg/day): 7.85
- LD50 [1]: > 4000 mg/kg

Structure (SMILES): O=C(N[C@@H](Cc1ccccc1)C(=O)N[C@@H](Cc1ccc(O)cc1)C(=O)O)c1ccccc1 [Compound (II) R3 =H, N-benzoylphenylalanyltyrosine] (Bz-Phe-Tyr-OH)
- LD50 [1]: > 4000 mg/kg
- Relative therapeutic effect ([2]; 200 mg/kg/day): 1.19

Structure (SMILES): CC(C)=CCCC(C)=CCCC(C)=CCCC(=O)OC/C=C(\C)CCC=C(C)C [Gefarnate, geranyl farnesylacetate, reference compound]
- Relative therapeutic effect ([3]; 200 mg/kg/day): 0.77
- Relative therapeutic effect ([2]; 200 mg/kg/day): 1.06

Structure (SMILES): NC(=O)CC[C@H](N)C(=O)O [Glutamine, glutamine, reference compound]
- Relative therapeutic effect ([3]; 1000 mg/kg/day): 1.00
- Relative therapeutic effect ([2]; 200 mg/kg/day): 0.30
- Relative therapeutic effect ([2]; 1000 mg/kg/day): 1.00

Structure (SMILES): COC(Cc1ccccc1)C(=O)N[C@H](CO)Cc1ccc(O)cc1 (stereo partly drawn) [N-(α -methoxy-β-phenylpropionyl)-tyrosinol]
- LD50 [1]: > 4000 mg/kg

Structure (SMILES): COc1ccc(C[C@@H](CO)NC(=O)OCc2ccc(OC)c(OC)c2)cc1 [O-methyl-N-(3,4-dimethoxybenzyloxycarbonyl)-tyrosinol]
- LD50 [1]: > 4000 mg/kg
- Relative therapeutic effect ([2]; 200 mg/kg/day): 0.98

Structure (SMILES): COc1ccc(C[C@@H](CO)NC(=O)OCc2ccccc2)cc1 [O-methyl-N-benzyloxycarbonyltyrosinol]
- LD50 [1]: > 4000 mg/kg
- Relative therapeutic effect ([2]; 200 mg/kg/day): 1.03

Structure (SMILES): N[C@@H](Cc1ccc(O)cc1)C(=O)O [Tyrosine, tyrosine]
- Relative therapeutic effect ([2]; 200 mg/kg/day): 0.37

Structure (SMILES): COc1ccc(COC(=O)N[C@H](CO)Cc2ccc(O)cc2)cc1 [drawing 11]
- LD50 [1]: > 4000 mg/kg
- Relative therapeutic effect ([2]; 200 mg/kg/day): 1.75

Structure (SMILES): COc1ccc(COC(=O)N[C@H](CO)Cc2ccc(O)cc2)cc1 [drawing 17]
- Relative therapeutic effect ([3]; 50 mg/kg/day): 7.72
